Experimental data reported in patent publication US20260102501A1, “ANTI-CANCER NUCLEAR HORMONE RECEPTOR-TARGETING COMPOUNDS” (Nuvation Bio Inc., priority 2022, published 2026).
Where a chain is given by its changes, count along the chain named.

Experiments:
[1] = target: T1, full-length androgen receptor (HEK293 cells stably expressing) (Homo sapiens, UniProt P10275); test: AR antagonism assay (luciferase reporter)
T1 sequence (P10275 1-920): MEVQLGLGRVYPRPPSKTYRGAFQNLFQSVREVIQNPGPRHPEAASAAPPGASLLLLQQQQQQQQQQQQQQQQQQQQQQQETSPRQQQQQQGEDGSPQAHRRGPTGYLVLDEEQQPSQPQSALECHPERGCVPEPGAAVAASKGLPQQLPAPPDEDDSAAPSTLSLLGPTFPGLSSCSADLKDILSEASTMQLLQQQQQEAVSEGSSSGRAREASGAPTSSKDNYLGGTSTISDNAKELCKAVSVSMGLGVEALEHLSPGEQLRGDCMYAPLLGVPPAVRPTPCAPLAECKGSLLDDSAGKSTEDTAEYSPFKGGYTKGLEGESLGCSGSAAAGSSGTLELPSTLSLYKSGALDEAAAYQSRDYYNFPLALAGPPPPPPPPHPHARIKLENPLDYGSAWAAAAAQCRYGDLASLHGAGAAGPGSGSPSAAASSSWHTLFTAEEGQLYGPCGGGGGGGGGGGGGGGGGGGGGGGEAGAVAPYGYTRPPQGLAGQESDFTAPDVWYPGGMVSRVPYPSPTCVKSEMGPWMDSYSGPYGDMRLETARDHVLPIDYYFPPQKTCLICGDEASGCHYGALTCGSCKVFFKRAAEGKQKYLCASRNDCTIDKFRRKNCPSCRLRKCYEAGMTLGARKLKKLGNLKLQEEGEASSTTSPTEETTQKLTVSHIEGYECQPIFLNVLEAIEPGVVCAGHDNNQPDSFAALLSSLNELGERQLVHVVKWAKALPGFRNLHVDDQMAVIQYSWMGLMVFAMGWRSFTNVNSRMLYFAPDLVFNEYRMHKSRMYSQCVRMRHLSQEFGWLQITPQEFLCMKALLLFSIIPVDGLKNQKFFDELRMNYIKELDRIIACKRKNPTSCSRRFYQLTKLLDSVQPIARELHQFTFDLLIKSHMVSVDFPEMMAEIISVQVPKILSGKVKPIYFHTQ
Description: AR antagonism assay: To evaluate AR antagonist activity, test compound was added to the assay plate (top dose 10 μM, 3 fold serial dilution, 10 point dose response). HEK293 cells stably expressing the full-length androgen receptor were seeded at a density of 20000 cells/well in the assay plate. The assay plate was then incubated at room temperature for 10 minutes and at 37° C. 5% CO2 for 20 minutes. Testosterone was added to the assay plate at 1 nM final concentration and the assay plate incubated at 37° C., 5% CO2 for 20 h. […] Steady-glo was added to the assay plate and mixed at room temperature for 20 minutes on an orbital shaker, before reading out on the En Vision plate reader.

T47D cells = test: Cell viability assay (CellTiterGlo); format: cell-based; details: Homo sapiens, 144 h, read-out: T47D (IC50, nM)
[2] = target: T2, GR (cytosol from IM-9 cells) (Homo sapiens, UniProt P04150); test: GR binding assay (3H-Dexamethasone displacement)
T2 sequence (P04150 1-777): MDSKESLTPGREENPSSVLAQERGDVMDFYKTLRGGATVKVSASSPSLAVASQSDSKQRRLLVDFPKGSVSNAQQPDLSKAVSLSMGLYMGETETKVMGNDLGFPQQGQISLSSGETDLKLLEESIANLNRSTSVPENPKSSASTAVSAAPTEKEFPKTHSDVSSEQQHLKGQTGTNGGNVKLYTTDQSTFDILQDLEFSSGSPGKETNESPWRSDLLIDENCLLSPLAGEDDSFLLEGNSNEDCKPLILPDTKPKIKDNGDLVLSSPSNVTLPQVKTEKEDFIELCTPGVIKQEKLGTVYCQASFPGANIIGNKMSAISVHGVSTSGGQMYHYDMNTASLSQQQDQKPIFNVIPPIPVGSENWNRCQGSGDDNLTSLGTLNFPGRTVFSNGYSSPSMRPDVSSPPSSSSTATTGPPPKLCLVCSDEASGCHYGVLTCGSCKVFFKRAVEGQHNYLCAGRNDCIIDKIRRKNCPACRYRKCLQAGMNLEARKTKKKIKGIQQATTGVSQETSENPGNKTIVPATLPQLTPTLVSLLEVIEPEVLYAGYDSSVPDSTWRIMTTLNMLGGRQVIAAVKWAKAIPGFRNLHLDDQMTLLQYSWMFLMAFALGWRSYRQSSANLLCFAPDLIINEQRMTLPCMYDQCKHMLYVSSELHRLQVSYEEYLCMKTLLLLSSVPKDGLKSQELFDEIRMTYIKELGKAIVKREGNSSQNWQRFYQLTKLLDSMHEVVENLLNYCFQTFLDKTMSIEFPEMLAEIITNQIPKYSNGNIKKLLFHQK

[3] = target: T3, AR (cytosol from LnCaP cells) (Homo sapiens, UniProt P10275, T878A); test: AR binding assay (3H-R1881 displacement)
T3 sequence (P10275 1-920 T878A): T1 sequence (P10275 1-920) with T878A
Description: The plate was then centrifuged at 3000 rpm for 30 minutes at 4° C.

LNCap cells = test: Cell viability assay (CellTiterGlo); format: cell-based; details: Homo sapiens, 144 h, read-out: LNCap (IC50, nM)
IEC6 cells = test: Cell viability assay (CellTiterGlo); details: Rattus norvegicus, IEC-6, 144 h, read-out: IEC-6 (IC50, nM)
Description: Cell viability assay: LNCap, 22Rv1, MCF7, MDAMB361, T47D, and IEC6 cells were seeded at a density of 500-2000 cells/well in 96 well plates, and a ‘T0’ (timepoint 0) was included along with the assay plate. The plates were then incubated at 37° C., 5% CO2 in a cell culture incubator overnight. On the next day, the ‘T0’ plate was assayed using CellTiterGlo (Promega, Inc) according to the manufacturer's instructions. The appropriate compounds were diluted in DMSO and added to the assay plate (final DMSO concentration of 0.1-0.2%) on the next day. The assay plates were incubated for 6 days at 37° C., 5% CO2. After the incubation period, the plates were assayed using CellTiterGlo (Promega, Inc) according to the manufacturer's instructions and luminescence was read on the En Vision plate reader. […] GraphPadPrism was used to analyze the data and determine GI50/IC50 values.

[4] = target: T4, ligand binding domain of the glucocorticoid receptor (HEK293 cells stably expressing) (Homo sapiens, UniProt P04150); test: GR antagonism assay (luciferase reporter)
T4 sequence (P04150 524-758 limits assumed): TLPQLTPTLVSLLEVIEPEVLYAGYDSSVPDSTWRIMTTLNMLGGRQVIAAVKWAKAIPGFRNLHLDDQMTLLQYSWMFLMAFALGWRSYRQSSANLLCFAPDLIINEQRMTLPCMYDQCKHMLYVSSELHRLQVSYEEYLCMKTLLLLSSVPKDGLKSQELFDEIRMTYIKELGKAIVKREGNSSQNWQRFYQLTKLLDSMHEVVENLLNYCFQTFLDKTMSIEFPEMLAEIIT

| Structure (SMILES) | IC50 [1] [nM] | IC50 (T47D cells) [nM] | IC50 [2] [nM] | IC50 [3] [nM] | IC50 (LNCap cells) [nM] | IC50 (IEC6 cells) [nM] | IC50 [4] [nM] |
| --- | --- | --- | --- | --- | --- | --- | --- |
| CC[C@@]1(O)C(=O)OCc2c1cc1n(c2=O)Cc2c-1nc1cc(F)c(C)c3c1c2[C@@H](NC(=O)OCc1ccc(NC(=O)[C@H](CCCNC(N)=O)NC(=O)[C@@H](NCCCCCCN(C)c2ccc([C@H]4C[C@@]5(C)[C@@H](CC[C@]5(OC(C)=O)C(C)=O)[C@@H]5CCC6=CC(=O)CCC6=C54)cc2)C(C)C)cc1)CC3 [Compound 59] | 101 to 1000 | 10 to 100 | 10 to 100 | 101 to 1000 | 10 to 100 |  |  |
| CC[C@@]1(O)C(=O)OCc2c1cc1n(c2=O)Cc2cc3c(CN(C)C)c(OC(=O)N4CCN(CCCCCCNc5ccc([C@H]6C[C@@]7(C)[C@@H](CC[C@]7(OC(C)=O)C(C)=O)[C@@H]7CCC8=CC(=O)CCC8=C76)cc5)CC4)ccc3nc2-1 [Compound No. 61, (S)-10-((dimethylamino)methyl)-4-ethyl-4-hydroxy-3,14-dioxo-3,4,12,14-tetrahydro-1H-pyrano[3′,4′:6,7]indolizino[1,2-b]quinolin-9-yl 4-(6-((4-((8S,11R,13S,14S,17R)-17-acetoxy-17-acetyl-13-methyl-3-oxo-2,3,6,7,8,11,12,13,14,15,16,17-dodecahydro-1H-cyclopenta[a]phenanthren-11-yl)phenyl)amino)hexyl)piperazine-1-carboxylate] | 101 to 1000 | 10 to 100 | < 10 | 10 to 100 | 101 to 1000 |  |  |
| CC[C@@]1(O)C(=O)OCc2c1cc1n(c2=O)Cc2cc3c(CN(C)C)c(OC(=O)N(C)Cc4ccc(NC(=O)[C@H](CCCNC(N)=O)NC(=O)[C@@H](NCCCCCCN(C)c5ccc([C@H]6C[C@@]7(C)[C@@H](CC[C@]7(OC(C)=O)C(C)=O)[C@@H]7CCC8=CC(=O)CCC8=C76)cc5)C(C)C)cc4)ccc3nc2-1 [Compound No. 60] | > 1000 | > 1000 | < 10 | 10 to 100 | > 1000 |  |  |
| CC#C[C@]1(O)CC[C@H]2[C@@H]3CCC4=CC(=O)CCC4=C3[C@@H](c3ccc(N(C)CCCCCCN4CCN(C(=O)Oc5ccc6nc7c(cc6c5CN(C)C)Cn5c-7cc6c(c5=O)COC(=O)[C@]6(O)CC)CC4)cc3)C[C@@]21C [Compound 29, (S)-10-((Dimethylamino)methyl)-4-ethyl-4-hydroxy-3,14-dioxo-3,4,12,14-tetrahydro-1H-pyrano[3′,4′:6,7]indolizino[1,2-b]quinolin-9-yl 4-(6-((4-((8S,11R,13S,14S,17S)-17-hydroxy-13-methyl-3-oxo-17-(prop-1-yn-1-yl)-2,3,6,7,8,11,12,13,14,15,16,17-dodecahydro-1H-cyclopenta[a]phenanthren-11-yl)phenyl)(methyl)amino)hexyl)piperazine-1-carboxylate] |  | 10 to 100 | < 10 |  | 10 to 100 | 101 to 1000 | < 10 |
